Ends that are not written are not given here.

Test [1] has as its system HeLa transfected with the pCALNL-GFP plasmid. In kind it is cell-based. The note with it: delivery peptide 5 μM in the presence of TAT-Cre 1 μM, 1 h.
Description: The number of cells in the images was approximately the same as assessed by bright field microscopy (1,000 cells/experiment, experiments in triplicate, average and standard deviations represented). Scale bars, 100 μM.
To further confirm that functional proteins can penetrate cells upon incubation with dTAT, delivery of Cre recombinase was tested. In this assay, Cre induces recombination of a loxP-STOP-loxP sequence upstream of the egfp gene of a reporter plasmid.
Test [2] deals with neuronal cell line Neuro-2a and primary human dermal fibroblasts (HDF). Nature of the test: Cellular localization of dTAT in neuronal and primary cells. In kind it is cell-based. The note with it: 1 h incubation. On the procedure:
FIG. 11 illustrates the cellular localization of dTAT after 1 h incubation with neuronal cell line Neuro-2a (left panel) and primary human dermal fibroblasts (HDF) (right panel). Cells were incubated with dTAT, washed, and imaged with a 100× objective. […] FIG. 12 graphically illustrates the proliferation rate (absorbance in an MTT assay) of treated and untreated HeLa, Neuro-2a, and HDF cells.

In another test the test system is NIH 3T3 cells. In words: HoxB4 and TAT-HoxB4 delivery, luciferase reporter under a HoxB4-inducible promoter. It is filed as cell-based, murine. The settings on record: dTAT 3 μM alone. On the procedure: Next, the delivery of the therapeutically important transcription factor HoxB4 was tested. HoxB4 can penetrate cells by itself or when fused to the […] TAT and activate transcription. […] NIH 3T3 cells were transfected with a vector containing the luciferase gene under a HoxB4-inducible promoter and with a β-galactosidase reporter as internal control. Cells were incubated with HoxB4 or TAT-HoxB4, in the absence or presence of dTAT for 1.5 h. Cells were then lysed and luciferase expression was assessed by measuring the luminescence of cell lysates normalized to β-galactosidase activity. […] These values are consistent with previously published reports. In contrast, addition of dTAT (3 μM), led to a luciferase induction of 53.1 and 307.4, respectively. The luciferase induction was therefore increased 24-fold in the presence of dTAT for HoxB4 and 61-fold for TAT-HoxB4. […] While increasing the transcriptional output of HoxB4 is valuable, high levels of HoxB4 expression can result in anti-proliferative and transforming effects. Precisely controlling the level and activity of HoxB4 inside cells is therefore important to achieve a desirable biological outcome. Because dTAT appears to act independently of the molecules used for co-incubation in our assays, it was hypothesized that it might be possible to titrate the amount of protein that penetrates cells by varying the protein concentration in the media while keeping dTAT concentration constant. Under this scenario, the efficiency of endosomal escape should remain unaffected but the amount of material released from endosomes should change.
The murine fibroblast cell line (NIH-3T3, stably transfected with the E2A-PBX vector), the luciferase reporter vector, pML (5×HOX/PBX; contains a promoter with binding sites for HOXB4 and PBX) and the β-gal internal control vector used in the following studies were kindly provided by P. Zandstra (University of Toronto, Ontario, Canada). The cells were initially cultured in 100 mm dishes at 37° C. with 5% CO2 in DMEM supplemented with 10% FBS. For experimental purposes, however, cells were seeded in 24-well plates at a density of 5-6×10^4 cells/well for 24 hours. Subsequently, cells were co-transfected with 0.8 μg/mL of pML (5×HOX/PBX) and of the β-gal internal control vector using Lipofectamine 2000. Twelve hours post-transfection, cells were washed and incubated with TAT-HoxB4 or HoxB4 (both at 200 nM, unless otherwise noted; see below) with or without TAT or dTAT in nrL-15 for 90 min. Some cells were also incubated with TAT-mCherry (200 nM) with and without the peptides. After incubation, all cells were washed with PBS and lysed according to the manufacturer's protocol for the reporter lysis buffer (RLB) (Promega). For titration experiments, the same protocol was followed, with the exception that HoxB4 concentrations were varied (25, 50, 100, 150 and 200 nM). In order to quantitate the luciferase reporter activity, 100 μL of luciferase assay reagent (Promega) was added to 20 μL of cell lysate and bioluminescence was immediately measured using a SpectraMaxL luminometer (Sunnyvale, Calif.). […] Absorbance was then measured at 450 nm using the plate reader. Since the absorption spectrum of the chromophore (TMR) conjugated to the peptide used in this study overlaps with that of β-gal, 20 μL of cell lysate containing the peptide was also diluted with 180 μL of the lysis buffer and absorbance values obtained at 450 nm were subtracted from that of the β-gal absorbance values. […]

A further test deals with HeLa cells. Nature of the test: dTAT-induced cytosolic release of DEAC-K9 trapped inside endosomes. The settings on record: 5 μM DEAC-K9 1 h, wash, 5 μM dTAT 1 h. It is filed as cell-based. On the procedure: FIGS. 8A-8C illustrate that dTAT mediates endosomal escape. (FIG. 8A) Effect of endocytic inhibitors on the cellular distribution of dTAT. HeLa cells were pre-treated with 50 μM amiloride or 200 nM bafilomycin for 30 and 20 min respectively, washed, and incubated with 5 μM dTAT and inhibitor. […] Scale bar, 10 μm. […] A schematic illustration of the experimental steps is shown (top). First, cells were incubated with 5 μM DEAC-K9 for 1 h and washed. Inverted monochrome images show a fluorescence punctuate distribution after incubation with DEAC-K9 alone. The same cells were then incubated with 5 μM dTAT for 1 h. Images show a redistribution of DEAC-K9 to the cytosol and nucleus (inhibited by bafilomycin). Scale bars, 10 μm. (FIG. 8C) The endosomolytic activity of dTAT is highly efficient. HeLa cells expressing SNAPH2B were incubated with 5 μM dTAT and 5 μM SNAP-Surface® 488. Fluorescence images show accumulation of SNAP-Surface® 488 in the nucleus. […] Small panels show cytosolic and nuclear fluorescence of TMR. Scale bars, 10 μm.
To test whether endosomal escape is involved in delivery of dTAT, the effects of amiloride, a macropinocytosis inhibitor, and bafilomycin, an inhibitor of endosomal acidification, were assessed. […] Cells were then washed and incubated with dTAT (FIG. 8B). […] This redistribution was however inhibited by bafilomycin.

“(CK(TMR)TAT)2 (CK(TMR)RKKRRQRRRG; also: dimer) [dTAT, dimer of two CK(TMR)-TAT monomers linked via a disulfide bond between the N-terminal cysteine residues]”: in test [1], the “percentage of EGFP+ cells” value came out at 47%. Besides, the “cellular localization of fluorescence” value in test [2] is recorded as “cytosolic release”. In addition, in the test on NIH 3T3 cells, the induction of luciferase result is listed as “Neither dTAT alone nor dTAT incubated with TAT-mCherry led to the induction of luciferase”. In the test with HeLa cells, the “distribution of DEAC-K9 fluorescence after subsequent addition of dTAT” value was “redistribution of the DEAC signal throughout the cytosol and nucleus”.

Values taken from US9662404B2, “Compositions and methods for the delivery of molecules into live cells” (The Texas A&M University System, priority 2013, dated 2017).
